Results: US10040791B2, “Isoxazole derivative as mutant isocitrate dehydrogenase 1 inhibitor” (Daiichi Sankyo Company, Limited, priority 2014, dated 2018)

Experiments:
[1] = system: HT-1080 cells expressing IDH1R132C; test: 2-HG production inhibitory activity using HT1080 cell; format: cell-based, human; settings: Homo sapiens, HT-1080; 2-HG production, HT1080 cells; read-out: Test Example 3 IC50
Protocol: Then, 100 μL of growth medium B was added to each well, further 25 μL of a solution of each compound diluted to a predetermined concentration with growth medium B was added to each well, and the cells were incubated at 37° C. for 2 days under 5% CO2. […] Then, 150 μL of ultrapure water was further added to each well, and the mixture was stirred by pipetting and stored at −20° C.
The preserved solutions were thawed at room temperature.

[2] = target: IDH1R132C (Homo sapiens (Human), UniProt O75874, R132C); test: Inhibitory activity against IDH1R132C enzyme (NADPH detection, WST-8); format: biochemical; settings: 10 nM, residual NADPH detected with WST-8, read-out: Test Example 1 IDH1 R132C IC50
Chain of IDH1R132C (O75874 whole entry R132C): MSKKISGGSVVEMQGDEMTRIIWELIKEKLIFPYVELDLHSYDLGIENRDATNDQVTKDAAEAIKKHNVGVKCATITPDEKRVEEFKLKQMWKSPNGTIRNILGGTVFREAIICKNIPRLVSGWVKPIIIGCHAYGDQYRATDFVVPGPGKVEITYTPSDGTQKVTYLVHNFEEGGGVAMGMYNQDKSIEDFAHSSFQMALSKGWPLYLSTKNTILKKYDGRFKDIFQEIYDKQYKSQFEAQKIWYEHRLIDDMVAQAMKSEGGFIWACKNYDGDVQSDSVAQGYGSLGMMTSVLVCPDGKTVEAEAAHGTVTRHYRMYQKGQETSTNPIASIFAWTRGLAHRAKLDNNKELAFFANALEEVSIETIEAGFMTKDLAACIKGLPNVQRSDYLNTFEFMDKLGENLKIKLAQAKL
Protocol: After transformation of Rosetta 2 (DE3) E. coli, the expression of the protein was induced with IPTG.
While NADPH-derived fluorescence was occasionally monitored, the reaction was terminated by the addition of 5 μL of 0.5 M EDTA before consumption of NADPH. 5 μL of WST-8 reagent (Dojindo Laboratories, #CK04) was further added and mixed therewith. 15 minutes later, the absorbance at 450 nm was measured using a plate reader (PerkinElmer, Inc., EnVision). The observed absorbance value reflects the amount of residual NADPH. From the absorbance data, the enzyme inhibitory activity of each compound at each concentration was calculated and analyzed using medical statistical analysis software GraphPad Prism to calculate an IC50 value.

**Q.** With `CC(=O)c1cn(C(=O)c2c(-c3c(Cl)cc(Cl)cc3Cl)noc2C(C)(C)F)c2cccc(/C=C/C(=O)O)c12` [Example 64, (2E)-3-(3-Acetyl-1-{[5-(2-fluoropropan-2-yl)-3-(2,4,6-trichlorophenyl)-1,2-oxazol-4-yl]carbonyl}-1H-indol-4-yl)prop-2-enoic acid] as the compound, how does the IC50 [1] read?
**A.** Its IC50 is over 2000 nM.

**Q.** What about the IC50 [2] of the same compound?
**A.** The IC50 was 888 nM.

**Q.** Which results are given for `Cc1cc(Cl)cc(Cl)c1-c1noc(C(C)(C)C)c1C(=O)n1ccc2c(/C=C/C(=O)O)cccc21` [Example 41, (2E)-3-(1-{[5-(tert-Butyl)-3-(2,4-dichloro-6-methylphenyl)-1,2-oxazol-4-yl]carbonyl}-1H-indol-4-yl)prop-2-enoic acid]?
**A.** IC50 [1]: 254 nM; IC50 [2]: 280 nM

**Q.** What does the source list for `CNC1(c2onc(-c3c(Cl)cc(Cl)cc3Cl)c2C(=O)n2cc3c4c(cccc42)/C(=C/C(=O)O)CC3)CC1` [Example 86, (2E)-[1-({5-[1-(Methylamino)cyclopropyl]-3-(2,4,6-trichlorophenyl)-1,2-oxazol-4-yl}carbonyl)-3,4-dihydrobenzo[cd]indol-5(1H)-ylidene]ethanoic acid]?
**A.** IC50 [1]: 33 nM; IC50 [2]: 79 nM

**Q.** With `COCC1(c2onc(-c3c(Cl)cc(Cl)cc3Cl)c2C(=O)n2cc(C)c3c(/C=C/C(=O)O)cccc32)CCC1` [Example 80, (2E)-3-(1-{[5-[1-(Methoxymethyl)cyclobutyl]-3-(2,4,6-trichlorophenyl)-1,2-oxazol-4-yl]carbonyl}-3-methyl-1H-indol-4-yl)prop-2-enoic acid] as the compound, how does the IC50 [1] read?
**A.** Its IC50 is 99 nM.

**Q.** What about the IC50 [2] of the same compound?
**A.** Its IC50 is 335 nM.

**Q.** With `Cc1cn(C(=O)c2c(-c3c(Cl)cccc3Cl)noc2C(C)C)c2cccc(/C=C/C(=O)O)c12` [Example 25, (2E)-3-(1-{[3-(2,6-Dichlorophenyl)-5-(propan-2-yl)-1,2-oxazol-4-yl]carbonyl}-3-methyl-1H-indol-4-yl)prop-2-enoic acid] as the compound, how does the IC50 [1] read?
**A.** Its IC50 is 248 nM.

**Q.** What about the IC50 [2] of the same compound?
**A.** Its IC50 is 326 nM.

**Q.** Which results are given for `C=CC(=O)N1CCN(c2onc(-c3c(Cl)cccc3Cl)c2C(=O)n2ccc3c(/C=C/C(=O)O)cccc32)C(C)(C)C1` [Example 153, (2E)-3-(1-{[5-(4-Acryloyl-2,2-dimethylpiperazin-1-yl)-3-(2,6-dichlorophenyl)-1,2-oxazol-4-yl]carbonyl}-1H-indol-4-yl)prop-2-enoic acid]?
**A.** IC50 [1]: 166 nM; IC50 [2]: 130 nM

**Q.** Which results are given for `C=CC(=O)N1CC2(CC2)N(c2onc(-c3c(F)cccc3Cl)c2C(=O)n2cc(C)c3c(/C=C/C(=O)O)cccc32)C[C@H]1C` [Example 162, (2E)-3-[1-({5-[(6R)7-Acryloyl-6-methyl-4,7-diazaspiro[2.5]oct-4-yl]-3-(2-chloro-6-fluorophenyl)-1,2-oxazol-4-yl}carbonyl)-3-methyl-1H-indol-4-yl]prop-2-enoic acid]?
**A.** IC50 [1]: 253 nM; IC50 [2]: 95 nM

**Q.** Which results are given for `CC(C)(F)c1onc(-c2c(Cl)cc(Cl)cc2Cl)c1C(=O)n1cc(F)c2c(/C=C/C(=O)O)cccc21` [Example 45, (2E)-3-(3-Fluoro-1-{[5-(2-fluoropropan-2-yl)-3-(2,4,6-trichlorophenyl)-1,2-oxazol-4-yl]carbonyl}-1H-indol-4-yl)prop-2-enoic acid]?
**A.** IC50 [1]: 60 nM; IC50 [2]: 114 nM

**Q.** With `NC[C@H]1CCN(c2onc(-c3c(Cl)cccc3Cl)c2C(=O)n2ccc3c(/C=C/C(=O)O)cccc32)C1` [Example 139, (2E)-3-[1-({5-[(3R)-3-(Aminomethyl)pyrrolidin-1-yl]-3-(2,6-dichlorophenyl)-1,2-oxazol-4-yl}carbonyl)-1H-indol-4-yl]prop-2-enoic acid] as the compound, how does the IC50 [1] read?
**A.** The IC50 was 339 nM.

**Q.** `CCC1(c2onc(-c3c(Cl)cccc3Cl)c2C(=O)n2ccc3c(/C=C/C(=O)O)cccc32)COC1` [Example 5, (2E)-3-(1-{[3-(2,6-Dichlorophenyl)-5-(3-ethyloxetan-3-yl)-1,2-oxazol-4-yl]carbonyl}-1H-indol-4-yl)prop-2-enoic acid] was tested. Which IC50 [1] did it give?
**A.** The IC50 was 42 nM.

**Q.** Which IC50 [2] does the source give for `NC[C@@H]1CCN(c2onc(-c3c(Cl)cccc3Cl)c2C(=O)n2ccc3c(/C=C/C(=O)O)cccc32)C1` [Example 140] here?
**A.** The IC50 was 1040 nM.
